Test results from US20240360122A1, “POLYMORPHIC FORMS AND SALTS OF A GLP-1R AGONIST” (Terns (Suzhou) Biotechnology Co., Ltd., priority 2023, published 2024).

What was measured:
Format in all cases: physicochemical
[1] = Solid state stability at 25° C./60% RH and 40° C./75% RH for 1 week; settings: for HPLC peak Area, RRT 1.00: main peak
Experimental: Each sample was added into a glass vial, sealed by parafilm with several holes, and kept under tested conditions. After one week, samples were taken for XRPD and HPLC purity test.

[2] = Kinetic solubility in water and bio-relevant media (SGF, FaSSIF, FeSSIF) at 37° C.; settings: for FC: Form change: residual solids by XRPD
Experimental: Add 4 mL of medium (H2O, SGF, FaSSIF and FeSSIF). • Rolled at 37° C. (˜25 rpm). Sampling at 1, 2, 4 and 24 hrs. • At each time-point, sampled 0.8 mL of solution or suspension into a centrifuge tube prior to centrifugation (12000 rpm, 37° C., 5 min) and filtration through 0.45 μm PTFE membrane. • Tested pH and concentration for the filtrate. Analyze residual solids by XRPD.
0.1 g of NaCl and 0.05 g of Triton X-100 were weighed into a 50-mL volumetric flask. Purified water was added to dissolve the solid. 67.5 μL HCl (38%, 12M) was added after the solid was dissolved completely. pH was then adjusted to 1.8 using HCl (1 M) or NaOH (1 M). Purified water was added to the volume.
(§1) 0.17 g of anhydrous NaH2PO4, 0.021 g of NaOH and 0.31 g of NaCl were weighed into a 50-mL volumetric flask. ˜48 mL purified water was added to dissolve the solid. pH was adjusted to 6.5 using 1M HCl or 1M NaOH. Purified water was then added to the volume. 0.11 g of SIF powder was added into the volumetric flask.
as §1, with “0.41 mL” for “0.17 g”, “acetic acid, 0.20” for “anhydrous NaH2PO4, 0.021”, “0.59” for “0.31”, “5.0” for “6.5”, “0.56” for “0.11”

[3] = Hygroscopicity by DVS at 25° C.
Experimental: DVS was measured via a SMS (Surface Measurement Systems) DVS Intrinsic. The relative humidity at 25° C. were calibrated against deliquescence point of LiCl, Mg(NO3)2 and KCl.

## N#Cc1ccc(COc2cccc(C3CCN(Cc4nc5ccc(C(=O)O)cc5n4Cc4cncs4)CC3)n2)c(F)c1 [Fumarate Type A]
[1]; 25° C./60% RH, 1 week
  HPLC peak Area, RRT 0.73: 0.14%
  HPLC peak Area, RRT 0.80: 0.05%
  HPLC peak Area, RRT 0.83: 1.98%
  HPLC peak Area, RRT 0.90: 0.10%
  HPLC peak Area, RRT 0.99: 0.06%
  HPLC peak Area, RRT 1.05: 0.28%
  HPLC peak Area, RRT 1.10: 0.89%
  HPLC peak Area, RRT 1.12: 0.06%
  HPLC peak Area, RRT 1.15: 0.25%
  HPLC peak Area, RRT 1.34: 0.07%
  HPLC peak Area, RRT 1.00: 96.13%
[1]; 25° C./60% RH/Open/1 week
  Form change: No
  Purity: 96.13 Area %
[1]; 25° C./60% RH/open and 40° C./75% RH/open, 1 week
  solid-state stability: form change and purity decrease: no form change or significant purity decrease
[1]; 40° C./75% RH, 1 week
  HPLC peak Area, RRT 0.73: 0.13%
  HPLC peak Area, RRT 0.80: <0.05%
  HPLC peak Area, RRT 0.83: 1.89%
  HPLC peak Area, RRT 0.90: 0.09%
  HPLC peak Area, RRT 0.99: <0.05%
  HPLC peak Area, RRT 1.05: 0.29%
  HPLC peak Area, RRT 1.10: 0.87%
  HPLC peak Area, RRT 1.12: 0.05%
  HPLC peak Area, RRT 1.15: 0.26%
  HPLC peak Area, RRT 1.34: 0.06%
  HPLC peak Area, RRT 1.00: 96.37%
[1]; 40° C./75% RH/Open/1 week
  Form change: No
  Purity: 96.37 Area %
[1]; Initial
  HPLC peak Area, RRT 0.73: 0.13%
  HPLC peak Area, RRT 0.80: <0.05%
  HPLC peak Area, RRT 0.83: 1.91%
  HPLC peak Area, RRT 0.90: 0.09%
  HPLC peak Area, RRT 0.99: <0.05%
  HPLC peak Area, RRT 1.05: 0.27%
  HPLC peak Area, RRT 1.10: 0.87%
  HPLC peak Area, RRT 1.12: 0.05%
  HPLC peak Area, RRT 1.15: 0.24%
  HPLC peak Area, RRT 1.34: 0.06%
  Purity: 96.37 Area %
  HPLC peak Area, RRT 1.00: 96.37%
[2]; FaSSIF, 37° C., 1 hr
  FC: Form change: No
[2]; FaSSIF, 37° C., 2 hrs
  FC: Form change: No
[2]; FaSSIF, 37° C., 4 hrs
  FC: Form change: No
[2]; FaSSIF, 37° C., 24 hrs
  FC: Form change: No
[2]; FeSSIF, 37° C., 1 hr
  FC: Form change: No
[2]; FeSSIF, 37° C., 2 hrs
  FC: Form change: No
[2]; FeSSIF, 37° C., 4 hrs
  FC: Form change: No
[2]; FeSSIF, 37° C., 24 hrs
  FC: Form change: No
[2]; H2O, 37° C., 1 hr
  FC: Form change: No
[2]; H2O, 37° C., 2 hrs
  FC: Form change: No
[2]; H2O, 37° C., 4 hrs
  FC: Form change: No
[2]; H2O, 37° C., 24 hrs
  FC: Form change: No
[2]; SGF, 37° C., 1 hr
  FC: Form change: No
[2]; SGF, 37° C., 2 hrs
  FC: Form change: No
[2]; SGF, 37° C., 4 hrs
  FC: Form change: No
[2]; SGF, 37° C., 24 hrs
  FC: Form change: No
[2]; all the media (H2O, SGF, FaSSIF, FeSSIF), after 24 hrs
  form change of residual solids (XRPD) after solubility test: No form change
[2]; all the media, 37° C.
  solubility compared with the other selected salts: lowest solubility
[3]; 25° C./80% RH
  water uptake (DVS): 0.12%
[3]; DVS, 25° C.
  hygroscopicity: non-hygroscopic
[3]; DVS, 25° C./80% RH
  Water uptake at 25° C./80% RH: 0.12 wt %
[3]; XRPD after DVS test
  For change after DVS: No
[3]; after DVS test
  form change after DVS test (XRPD): no form change
